Measurements published in US20090123581A1, “COLLAGEN CROSS-LINKING AGENTS ON DENTAL RESTORATIVE TREATMENT AND PREVENTIVE DENTISTRY” (THE BOARD OF TRUSTEES OF THE UNIVERSITY OF ILLINOIS, priority 2006, published 2009).

Key:
Design in all cases: species or system human
[1] = Ultimate tensile strength (UTS) of demineralized dentin after cross-linker treatment (Example 1); settings: for Ultimate tensile strength, mean: pH 7.4
Description: (§1) Fixation Processes: Ten sound freshly extracted human molars were used in this study. The teeth were thawed, cleaned of adhering soft tissues, and the occlusal surfaces were ground flat with #320 grit Silicon Carbide paper under running water to remove part of the enamel. Flattening of the occlusal surface by removal of the cusps enables accurate sectioning of samples in beam shape. Teeth were sectioned into 0.5±0.1 by 0.5±0.1 mm thick beams (n=20 beams per tooth) with a slow speed diamond wafering blade (Buehler-Series 15LC Diamond, Lake Bluff, Ill., USA) under constant water coolant (FIG. 1A).
(§2) The slabs were randomly divided into two groups: 1) undemineralized dentin and 2) demineralized dentin (FIG. 1A). In Group 2, dentin beams were immersed in 10% phosphoric acid solution (Fisher Scientific, New Jersey, N.J.) for a period of 5 hours. X-rays were taken from the specimens to verify complete tissue demineralization. Specimens were thoroughly rinsed with distilled water for 10 minutes to remove any residue of the phosphoric acid.
(§3) Specimens from groups 1 and 2 were subdivided according to the dentin treatment (FIG. 1B). In Treatment A, specimens were immersed in PBS solution (pH: 7.4) as a control. In Treatment B, specimens were immersed in 0.5% Proanthocyanidin (MegaNatural—Polyphenolics Ind.) PBS solution (PA) at a pH of 7.4. In Treatment C, specimens were immersed in 0.625% Genipin (Wako Pure Chemical Ind.) PBS solution (GE) at a pH of 7.4. In Treatment D, specimens were immersed in 5% glutaraldehyde solution (GD) (Fisher Scientific, New Jersey, N.J.) at a pH of 7.4. Specimens were kept in their respective solutions for 4 and 40 hours at room temperature. After the incubation periods, specimens were thoroughly rinsed with distilled and deionized water to remove any remains of cross-linking agents and buffer.
(§4) UTS testing: For UTS evaluation, the specimens were glued with a cyanoacrylate adhesive (Zapit—Dental Ventures of America Inc., Corona, Calif.) to a Ciucchi's jig, which was mounted on a universal testing machine (EZ Test, Shimazu Co., Kyoto, Japan) and subjected to microtensile testing at a crosshead speed of 1 mm/min (FIG. 1C). Means and standard deviations were calculated and expressed in microtensile bond strengths (MPa). Statistical analysis was performed using a two-way ANOVA and Fisher's PLSD tests (p<0.05).

[2] = Microtensile bond strength of adhesive restoration to sound dentin (Example 2); settings: 5% glutaraldehyde for 5 minutes, versus control (p=0.2395)
Procedure: Effect of an exogenous collagen cross-linking agent on dentin bonding: In order to analyze the contribution of exogenous collagen cross-linking to sound and caries-affected dentin bonding, demineralized dentin surfaces were treated with 5% glutaraldehyde and the restored specimens were subjected to microtensile bond strength testing.
Specimen preparation: Six human molars stored frozen (−20° C.) for less then one month were used. The teeth presented occlusal caries in which enamel was visually intact. The teeth were thawed, cleaned of adhering soft tissues, and the occlusal surfaces were ground flat with #320 and #600 grit Silicon Carbide (Sic) papers under running water to remove the enamel and expose flat middle dentin, respectively. […]
Microtensile bond test (MTB): After 24 hrs in water at 37° C., the teeth were sectioned into 0.7±0.2 mm thick slabs, and the interfaces trimmed to an hourglass shape using a fine diamond bur to produce a cross-sectional area of 1 mm^2. The thickness of the slabs and the width of the trimmed surface were measured using a digital caliper (Fisher Scientific, New Jersey, N.J.) and specimens in sound and caries-affected dentin were obtained. […] MPa were determined by dividing the fracture load by the cross-sectional area of the interface.

[3] = Ultimate tensile strength (UTS) of undemineralized (mineralized) dentin after cross-linker treatment (Example 1); settings: 0.625% GE or 5% GD; for Ultimate tensile strength, mean: pH 7.4
Description: as §1, §2, §3, §4

SMILES: O=CCCCC=O [GD, glutaraldehyde]
- Ultimate tensile strength, mean ([1]; 4 hours in 0.5% PA, 0.625% GE or 5% GD): 13.1 MPa
- Ultimate tensile strength, mean ([1]; 40 hours in 0.5% PA, 0.625% GE or 5% GD): 9.1 MPa
- Ultimate tensile strength, pooled data ([1]; pooled over 4 and 40 hours, 0.5% PA, 0.625% GE or 5% GD): 11.1 BC MPa
- UTS values compared to the control group (statistics) ([1]; two-way ANOVA, Fisher's PLSD): no statistically significant differences
- effect on bond strength [2]: no significant effect
- Ultimate tensile strength, mean ([3]; 4 hours in 0.5% PA): 94.5 MPa
- Ultimate tensile strength, mean ([3]; 40 hours in 0.5% PA): 110.4 MPa
- Ultimate tensile strength, pooled data ([3]; pooled over 4 and 40 hours, 0.5% PA): 102.5 A MPa
